Test results published in patent US20090264415A2 (priority 2004, published 2009).
Where two headings read alike, the source gives them in different places.

Tested on: peripheral blood mononuclear cells (PBMC) stimulated with allogeneic PBMC or EBV-transformed human B cells (RPMI1788)
Assay: Mixed lymphocyte reaction (MLR) assay
Type: cell-based
Description: Pyrido[3,2-d]pyrimidine derivatives were first dissolved (10 mM) in dimethyl-sulfoxide (hereinafter referred as DMSO) and further diluted in culture medium before use for the following in vitro experiments. […] Some pyrido[3,2-d]pyrimidine derivatives described herein were tested in the following mixed lymphocyte reaction (MLR) assay.
Peripheral blood mononuclear cells (hereinafter referred as PBMC) were isolated from heparinized peripheral blood by density gradient centrifugation over Lymphoprep (Nycomed, Maorstua, Norway). Allogeneic PBMC or Eppstein-Barr Virus-transformed human B cells [commercially available under the trade name RPM11788 (ATCC name CCL156)] which strongly express B7-1 and B7-2 antigens were used as stimulator cells after irradiation with 30 Gy. MLR was performed in triplicate wells. After 5 days incubation at 37° C., 1 μCi [^3H]-thymidine was added to each cup. After a further 16 hours incubation, cells were harvested and counted in a β-counter. Inhibition of proliferation by a compound described in some of the present examples was counted while using the formula: [formula] wherein cpm is the thymidine count per minute. The MLR assay is regarded by those skilled in the art as an in vitro analogue of the transplant rejection since it is based on the recognition of allogeneic major histocompatibility antigens on the stimulator leukocytes, by responding lymphocytes.

[1] = Homo sapiens, RPMI-1788, MLR assay of example 319, read-out: MLR IC50
[2] = 50% suppression of the MLR, [3H]-thymidine incorporation, read-out: MLR

Row | SMILES | IC50 [1] | IC50 [2]
1 | C[C@@H]1CN(C(=O)c2ccccc2)CCN1c1nc(N)nc2ccc(-c3ccc(F)cc3)nc12 [Example 487, (R)-2-amino-4-(4-benzoyl-2-methylpiperazin-1-yl)-6-(4-fluorophenyl)-pyrido[3,2-d]pyrimidine] | 7500 nM | –
2 | COc1ccc(-c2ccc3ncnc(N4CCN(C(=O)Nc5ccc(F)cc5)CC4)c3n2)cc1OC [Example 111, 4-[(N-4-fluorophenylcarbamoyl)-piperazin-1-yl]-6-(3,4-dimethoxyphenyl)-pyrido[3,2-d]pyrimidine] | – | 30 nM
3 | Nc1nc(N2CCN(C(=O)COc3ccc(Cl)cc3)CC2)c2nc(-c3cc(F)c(F)c(F)c3)ccc2n1 [Example 432, 2-amino-4-[4-(4-chlorophenoxyacetyl)piperazin-1-yl]-6-(3,4,5-trifluorophenyl)-pyrido-[3,2-d]pyrimidine] | 90 nM | –
4 | Nc1nc(N2CCN(C(=O)CNC(=O)c3ccc(Cl)cc3)CC2)c2nc(-c3ccc(F)cc3)ccc2n1 [Example 476, N-(2-{4-[2-amino-6-(4-fluorophenyl)-pyrido[3,2-d]pyrimidin-4-yl]-piperazin-1-yl}-2-oxoethyl)-4-chlorobenzamide] | 60 nM | –
5 | Cc1cccc(NC(=O)N2CCN(c3ncnc4ccc(-c5cccc(C#N)c5)nc34)CC2)c1 [Example 554, 4-[(3-methylphenylcarbamoyl)-piperazin-1-yl]-6-(3-cyanophenyl)pyrido[3,2-d]pyrimidine] | 37 nM | –
6 | Cc1cccc(OCC(=O)N2CCN(c3nc(N)nc4ccc(-c5ccc(F)cc5)nc34)CC2)c1 [Example 384, 2-amino-4-[4-(3-methylphenoxyacetyl)piperazin-1-yl]-6-(4-fluorophenyl)-pyrido[3,2-d]pyrimidine] | 50 nM | –
7 | Nc1nc(N2CCN(C(=O)COc3ccc(Cl)cc3)CC2)c2nc(-c3cc(F)ccc3F)ccc2n1 [Example 440, 2-amino-4-[4-(4-chlorophenoxyacetyl)piperazin-1-yl]-6-(2,5-difluorophenyl)pyrido-[3,2-d]pyrimidine] | 70 nM | –
8 | CCCCOc1nc(N2CCN(C(=O)Nc3cccc(C)c3)CC2)c2nc(-c3ccc(OC)c(OC)c3)ccc2n1 [Example 89, 2-butoxy-4-[(N-3-methyl-phenylcarbamoyl)-piperazin-1-yl]-6-(3,4-dimethoxyphenyl)-pyrido[3,2-d]pyrimidine] | – | 2000 nM
9 | CC(C)(C)OC(=O)N[C@H]1CCN(c2nc(N)nc3ccc(-c4ccc(F)cc4)nc23)C1 [Example 576, 2-amino-4-[(S)-3-Boc-amino-pyrrolidin-1-yl]-6-(4-fluorophenyl)-pyrido(3,2-d)pyrimidine] | 4200 nM | –
10 | Cc1cccc(NC(=O)N2CCN(c3nc(-c4ccccc4)nc4ccc(-c5ccc(F)cc5)nc34)CC2)c1 [Example 533, 2-phenyl-4-[N-(3-methylphenylcarbamoyl)piperazin-1-yl]-6-(4-fluorophenyl)-pyrido[3,2-d]pyrimidine] | 2600 nM | –
11 | Nc1nc(N2CCN(C(=O)COc3ccc(Cl)cc3)CC2)c2nc(-c3ccccc3)ccc2n1 [Example 421, 2-amino-4-[4-(4-chlorophenoxyacetyl)piperazin-1-yl]-6-phenylpyrido-[3,2-d]pyrimidine] | 49 nM | –
12 | Cc1cccc(NC(=O)N2CCN(c3nc(NC4CCCC4)nc4ccc(-c5ccc(F)cc5)nc34)CC2)c1 [Example 571, 2-cyclopentylamino-6-(4-fluorophenyl)-4-[(3-methylphenylcarbamoyl)-piperazin-1-yl]-pyrido[3,2-d]pyrimidine] | 500 nM | –
13 | Cc1cccc(NC(=O)N2CCC(Nc3nc(N)nc4ccc(-c5ccc(F)cc5)nc34)C2)c1 [Example 580, 2-amino-4-[1-(3-methylphenylcarbamoyl)-(S)-amino-pyrrolidin-3-yl]-6-(4-fluorophenyl)-pyrido(3,2-d)pyrimidine] | 300 nM | –
14 | Nc1nc(N2CCN(CCOc3ccccc3)CC2)c2nc(-c3ccc(F)cc3)ccc2n1 [Example 205] | – | 5500 nM
15 | N#Cc1cccc(-c2ccc3nc(N)nc(N4CCN(C(=O)COc5ccc(Cl)cc5)CC4)c3n2)c1 [Example 414, 2-amino-4-[4-(4-chlorophenoxyacetyl)piperazin-1-yl]-6-(3-cyanophenyl)pyrido-[3,2-d]pyrimidine] | 20 nM | –
16 | Cc1cccc(-c2ccc3nc(N)nc(N4CCN(C(=O)COc5ccc(Cl)cc5)CC4)c3n2)c1 [Example 498, 2-amino-4-[N-(4-chlorophenoxyacetyl)-piperazin-1-yl]-6-(3-methyl-phenyl)-pyrido(3,2-d)pyrimidine] | 8 nM | –
17 | CNc1nc(N2CCN(C(=O)COc3ccc(Cl)cc3)CC2)c2nc(-c3ccc(F)cc3)ccc2n1 [Example 574, 2-methylamino-4-[N-(4-chlorophenoxyacetyl)-piperazin-1-yl]-6-(4-fluorophenyl)-pyrido[3,2-d]pyrimidine] | 336 nM | –
18 | Cc1cccc(NC(=O)N2CCN(c3ncnc4ccc(-c5cccs5)nc34)CC2)c1 [Example 562, 4-[(3-methylphenylcarbamoyl)-piperazin-1-yl]-6-(2-thienyl)pyrido[3,2-d]pyrimidine] | 53 nM | –
19 | CNc1nc(N2CCN(C(=O)OC(C)(C)C)CC2)c2nc(-c3ccc(F)cc3)ccc2n1 [Example 569, 2-methylamino-6-(4-fluorophenyl)-4-(4-Boc-piperazino)-pyrido[3,2-d]pyrimidine and 2,4-dimethylamino-6-(4-fluorophenyl)pyrido[3,2-d]pyrimidine] | 5900 nM | –
20 | CNC(=O)N1CCN(c2nc(N)nc3ccc(-c4ccc(F)cc4)nc23)CC1 [Example 452, 2-amino-4-[4-(N-methylcarbamoyl)-piperazin-1-yl]-6-(4-fluorophenyl)-pyrido[3,2-d]pyrimidine] | 400 nM | –
21 | Nc1nc(N2CCN(C(=O)Nc3ccc(Cl)cc3)CC2)c2nc(-c3ccc(F)cc3)ccc2n1 [Example 455, 2-amino-4-[4-[N-(4-chlorophenyl)carbamoyl]-piperazin-1-yl]-6-(4-fluorophenyl)-pyrido[3,2-d]pyrimidine] | 70 nM | –
22 | CCOc1ccc(-c2ccc3ncnc(N4CCN(C(=O)Nc5cccc(C)c5)CC4)c3n2)cc1F [Example 559, 4-[(3-methylphenylcarbamoyl)-piperazin-1-yl]-6-(3-fluoro-4-ethoxyphenyl)pyrido[3,2-d]pyrimidine] | 178 nM | –
23 | CC(C)(C)OC(=O)N1CCN(c2nc(Cl)nc3ccc(-c4ccc(F)cc4)nc23)CC1 [Example 566, 2-chloro-6-(4-fluorophenyl)-4-(4-Boc-piperazino)pyrido[3,2-d]pyrimidine] | > 10000 nM | –
24 | Cc1cccc(C)c1-c1ccc2nc(N)nc(N3CCN(C(=O)COc4ccc(Cl)cc4)CC3)c2n1 [Example 433, 2-amino-4-[4-(4-chlorophenoxyacetyl)piperazin-1-yl]-6-(2,6-dimethylphenyl)-pyrido-[3,2-d]pyrimidine] | 3600 nM | –
25 | Nc1nc(N2CCN(C(=O)COc3ccc(Cl)cc3)CC2)c2nc(-c3ccc(F)c(Cl)c3)ccc2n1 [Example 408, 2-amino-4-[4-(4-chlorophenoxyacetyl)piperazin-1-yl]-6-(3-chloro-4-fluorophenyl)-pyrido-[3,2-d]pyrimidine] | 200 nM | –
26 | Nc1nc(N2CCN(C(=O)COc3ccc(Cl)cc3)CC2)c2nc(-c3ccncc3)ccc2n1 [Example 407, 2-amino-4-[4-(4-chlorophenoxyacetyl)piperazin-1-yl]-6-(pyridin-4-yl)pyrido-[3,2-d]pyrimidine] | 5 nM | –
